Where two headings read alike, the source gives them in different places. Numbered stars: 1 amine (or outer) side, 2 acyl side, 3 side chain; on linkers, the order of the positions; unused ones are H or OH. Square brackets hold non-standard residues; d marks the D form. Side chains are listed from the residue outwards. Peptide text beside a SMILES is read from it. * marks the point of attachment. C18 diacid = O=C(O)CCCCCCCCCCCCCCCCC(=O)*; γGlu = O=C(O)[C@H](CCC(=O)[*:2])N[*:1]; εLys = N[C@@H](CCCCN[*:1])C(=O)[*:2]; AEEA = NCCOCCOCC(=O)O; Aib = CC(C)(N)C(=O)O
Assays:
human GLP-1 receptor [1] = molecular target: T1, human GLP-1 receptor (Homo sapiens, UniProt P43220); test: GLP-1 receptor binding (SPA, displacement of 125I-GLP-1); settings: for IC50 (high HSA): heading: Receptor binding affinity IC50
T1 construct: expressed in transfected cells; host or cells: BHK cells, clone FCW467-12A/KZ10-1 (parent line BHKTS13), further transfected with CRE luciferase
Outline: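 Tracer [125I]-GLP-1(7-36)NH2 at 0.06 nM final competed on hamster stably transfected cell membranes captured by WGA SPA beads; 120 min, 30 °C, scintillation count.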

human GLP-1 receptor [2] = molecular target: T1, human GLP-1 receptor; test: In vitro potency (CRE luciferase; whole cells); assay type: cell-based; design: EC50/pM (ratio 1% HSA/0% HSA): unit not given here; settings: for EC50: BHK cells; for EC50/pM (ratio 1% HSA/0% HSA): ratio of EC50 at 1% HSA to EC50 at 0% HSA
Outline: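 Reporter: CRE-luciferase in BHK cells stably expressing human GLP-1R, 5×10^3 cells/well; compounds tested in buffer containing 0% or 1% HSA.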

[3] = Pharmacokinetic (PK) study in rat; settings: male, Sprague Dawley, in vivo, iv, 6 nmol/kg
[4] = Receptor binding affinity IC50 (high HSA), 2.0% HSA (high albumin)
[5] = In vitro potency (CRE luciferase) EC50 (0% HSA), 0% HSA
[6] = In vitro potency (CRE luciferase) EC50 (1% HSA), 1% HSA
[7] = 0.001% HSA (low albumin), read-out: Receptor binding affinity IC50 (low HSA)
[8] = 0% HSA, read-out: In vitro potency (CRE luciferase) EC50 (0% HSA)

T1 sequence (P43220 24-463): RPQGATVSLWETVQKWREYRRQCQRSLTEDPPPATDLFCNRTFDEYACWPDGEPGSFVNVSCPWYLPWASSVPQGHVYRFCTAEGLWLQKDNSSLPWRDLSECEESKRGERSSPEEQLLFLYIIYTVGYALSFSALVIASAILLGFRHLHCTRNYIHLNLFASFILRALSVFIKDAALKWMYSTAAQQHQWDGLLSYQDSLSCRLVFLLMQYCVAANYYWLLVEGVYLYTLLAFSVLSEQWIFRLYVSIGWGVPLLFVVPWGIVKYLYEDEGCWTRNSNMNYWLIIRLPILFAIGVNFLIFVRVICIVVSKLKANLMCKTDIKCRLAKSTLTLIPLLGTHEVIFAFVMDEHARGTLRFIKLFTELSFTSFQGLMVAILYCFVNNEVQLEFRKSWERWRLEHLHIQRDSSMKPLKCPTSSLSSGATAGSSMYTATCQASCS

Row | Structure (SMILES) | IC50 (human GLP-1 receptor [1]; [4]) | EC50 (human GLP-1 receptor [2]; [5]) | EC50 (human GLP-1 receptor [2]; [6]) | half-life [3] | IC50 (human GLP-1 receptor [1]; [7]) | IC50 (human GLP-1 receptor [1]; 2.0% HSA (high albumin), read-out: Receptor binding affinity IC50 (high HSA)) | IC50 (human GLP-1 receptor [1]; Receptor binding affinity IC50 (low HSA), 0.001% HSA (low albumin)) | IC50 (high HSA) (human GLP-1 receptor [1]; [4]) | EC50 (human GLP-1 receptor [2]; [8]) | EC50/pM (ratio 1% HSA/0% HSA) (human GLP-1 receptor [2])
1 | CC[C@H](C)[C@H](NC(=O)[C@H](Cc1ccccc1)NC(=O)[C@H](CCC(=O)O)NC(=O)[C@H](CCCCNC(=O)[C@@H](N)CCCCNC(=O)[C@@H](N)CCCCNC(=O)CC[C@H](NC(=O)CCCCCCCCCOc1ccc(C(=O)O)cc1)C(=O)O)NC(=O)[C@H](C)NC(=O)[C@H](C)NC(=O)[C@H](CCC(N)=O)NC(=O)CNC(=O)[C@H](CCC(=O)O)NC(=O)[C@H](CC(C)C)NC(=O)[C@H](Cc1ccc(O)cc1)NC(=O)[C@H](CO)NC(=O)[C@H](CO)NC(=O)[C@@H](NC(=O)[C@H](CC(=O)O)NC(=O)[C@H](CO)NC(=O)[C@@H](NC(=O)[C@H](Cc1ccccc1)NC(=O)[C@@H](NC(=O)CNC(=O)[C@H](CCC(=O)O)NC(=O)C(C)(C)NC(=O)[C@@H](N)Cc1c[nH]cn1)[C@@H](C)O)[C@@H](C)O)C(C)C)C(=O)N[C@@H](C)C(=O)N[C@@H](Cc1c[nH]c2ccccc12)C(=O)N[C@@H](CC(C)C)C(=O)N[C@H](C(=O)N[C@@H](CCCNC(=N)N)C(=O)NCC(=O)N[C@@H](CCCNC(=N)N)C(=O)N[C@@H](CCCCNC(=O)[C@@H](N)CCCCNC(=O)[C@@H](N)CCCCNC(=O)CC[C@H](NC(=O)CCCCCCCCCOc1ccc(C(=O)O)cc1)C(=O)O)C(=O)O)C(C)C [Example 1, N^ε26-[(2S)-2-amino-6-[[(2S)-2-amino-6-[[(4S)-4-carboxy-4-[10-(4-carboxyphenoxy)decanoylamino]butanoyl]amino]hexanoyl]amino]hexanoyl], N^ε37-[(2S)-2-amino-6-[[(2S)-2-amino-6-[[(4S)-4-carboxy-4-[10-(4-carboxyphenoxy)decanoylamino]butanoyl]amino]hexanoyl]amino]hexanoyl]-[Aib^8, Arg^34,Lys^37]-GLP-1-(7-37)-peptide] | 13 nM | 0.004 nM | 0.057 nM | 14 h | – | – | – | – | – | –
2 | CC[C@H](C)[C@H](NC(=O)[C@H](Cc1ccccc1)NC(=O)[C@H](CCC(=O)O)NC(=O)[C@H](CCCCNC(=O)[C@@H](N)CCCCNC(=O)[C@@H](N)CCCCNC(=O)CC[C@H](NC(=O)CCCCCCCCCCCCC(=O)O)C(=O)O)NC(=O)[C@H](C)NC(=O)[C@H](C)NC(=O)[C@H](CCC(N)=O)NC(=O)CNC(=O)[C@H](CCC(=O)O)NC(=O)[C@H](CC(C)C)NC(=O)[C@H](Cc1ccc(O)cc1)NC(=O)[C@H](CO)NC(=O)[C@H](CO)NC(=O)[C@@H](NC(=O)[C@H](CC(=O)O)NC(=O)[C@H](CO)NC(=O)[C@@H](NC(=O)[C@H](Cc1ccccc1)NC(=O)[C@@H](NC(=O)CNC(=O)[C@H](CCC(=O)O)NC(=O)C(C)(C)NC(=O)[C@@H](N)Cc1c[nH]cn1)[C@@H](C)O)[C@@H](C)O)C(C)C)C(=O)N[C@@H](C)C(=O)N[C@@H](Cc1c[nH]c2ccccc12)C(=O)N[C@@H](CC(C)C)C(=O)N[C@H](C(=O)N[C@@H](CCCNC(=N)N)C(=O)NCC(=O)N[C@@H](CCCNC(=N)N)C(=O)N[C@@H](CCCCNC(=O)[C@@H](N)CCCCNC(=O)[C@@H](N)CCCCNC(=O)CC[C@H](NC(=O)CCCCCCCCCCCCC(=O)O)C(=O)O)C(=O)O)C(C)C [Example 2, N^ε26-[(2S)-2-amino-6-[[(2S)-2-amino-6-[[(4S)-4-carboxy-4-(13-carboxytridecanoylamino)butanoyl]amino]hexanoyl]amino]hexanoyl], N^ε37-[(2S)-2-amino-6-[[(2S)-2-amino-6-[[(4S)-4-carboxy-4-(13-carboxytridecanoylamino)butanoyl]amino]hexanoyl]amino]hexanoyl]-[Aib^8,Arg^34,Lys^37]-GLP-1-(7-37)-peptide] | – | – | 0.059 nM | – | 0.24 nM | 29 nM | – | – | – | –
3 | CC[C@H](C)[C@H](NC(=O)[C@H](Cc1ccccc1)NC(=O)[C@H](CCC(=O)O)NC(=O)[C@H](CCCCNC(=O)[C@@H](N)CCCCNC(=O)COCCOCCNC(=O)COCCOCCNC(=O)CC[C@H](NC(=O)CCCCCCCCCOc1ccc(C(=O)O)cc1)C(=O)O)NC(=O)[C@H](C)NC(=O)[C@H](C)NC(=O)[C@H](CCC(N)=O)NC(=O)CNC(=O)[C@H](CCC(=O)O)NC(=O)[C@H](CC(C)C)NC(=O)[C@H](Cc1ccc(O)cc1)NC(=O)[C@H](CO)NC(=O)[C@H](CO)NC(=O)[C@@H](NC(=O)[C@H](CC(=O)O)NC(=O)[C@H](CO)NC(=O)[C@@H](NC(=O)[C@H](Cc1ccccc1)NC(=O)[C@@H](NC(=O)CNC(=O)[C@H](CCC(=O)O)NC(=O)C(C)(C)NC(=O)[C@@H](N)Cc1c[nH]cn1)[C@@H](C)O)[C@@H](C)O)C(C)C)C(=O)N[C@@H](C)C(=O)N[C@@H](Cc1c[nH]c2ccccc12)C(=O)N[C@@H](CC(C)C)C(=O)N[C@H](C(=O)N[C@@H](CCCNC(=N)N)C(=O)NCC(=O)N[C@@H](CCCNC(=N)N)C(=O)N[C@@H](CCCCNC(=O)[C@@H](N)CCCCNC(=O)COCCOCCNC(=O)COCCOCCNC(=O)CC[C@H](NC(=O)CCCCCCCCCOc1ccc(C(=O)O)cc1)C(=O)O)C(=O)O)C(C)C [Example 5] | 64 nM | 0.0054 nM | 0.033 nM | – | – | – | 1.03 nM | – | – | –
4 | CC[C@H](C)[C@H](NC(=O)[C@H](Cc1ccccc1)NC(=O)[C@H](CCC(=O)O)NC(=O)[C@H](CCCCNC(=O)[C@@H](N)CCCCNC(=O)[C@@H](N)CCCCNC(=O)CC[C@H](NC(=O)CCCCCCCCCCCCCCCCC(=O)O)C(=O)O)NC(=O)[C@H](C)NC(=O)[C@H](C)NC(=O)[C@H](CCC(N)=O)NC(=O)CNC(=O)[C@H](CCC(=O)O)NC(=O)[C@H](CC(C)C)NC(=O)[C@H](Cc1ccc(O)cc1)NC(=O)[C@H](CO)NC(=O)[C@H](CO)NC(=O)[C@@H](NC(=O)[C@H](CC(=O)O)NC(=O)[C@H](CO)NC(=O)[C@@H](NC(=O)[C@H](Cc1ccccc1)NC(=O)[C@@H](NC(=O)CNC(=O)[C@H](CCC(=O)O)NC(=O)C(C)(C)NC(=O)[C@@H](N)Cc1c[nH]cn1)[C@@H](C)O)[C@@H](C)O)C(C)C)C(=O)N[C@@H](C)C(=O)N[C@@H](Cc1c[nH]c2ccccc12)C(=O)N[C@@H](CC(C)C)C(=O)N[C@H](C(=O)N[C@@H](CCCNC(=N)N)C(=O)NCC(=O)N[C@@H](CCCNC(=N)N)C(=O)N[C@@H](CCCCNC(=O)[C@@H](N)CCCCNC(=O)[C@@H](N)CCCCNC(=O)CC[C@H](NC(=O)CCCCCCCCCCCCCCCCC(=O)O)C(=O)O)C(=O)O)C(C)C [Example 27, N^ε26-[(2S)-2-amino-6-[[(2S)-2-amino-6-[[(4S)-4-carboxy-4-(17-carboxyheptadecanoylamino)butanoyl]amino]hexanoyl]amino]hexanoyl], N^ε37-[(2S)-2-amino-6-[[(2S)-2-amino-6-[[(4S)-4-carboxy-4-(17-carboxyheptadecanoylamino)butanoyl]amino]hexanoyl]amino]hexanoyl]-[Aib^8,Arg^34,Lys^37]-GLP-1-(7-37)-peptide] | – | – | 6.19 nM | – | 0.25 nM | – | – | 689 nM | 0.022 nM | 276
5 | CC[C@H](C)[C@H](NC(=O)[C@H](Cc1ccccc1)NC(=O)[C@H](CCC(=O)O)NC(=O)[C@H](CCCCNC(=O)[C@@H](N)CCCCNC(=O)COCCOCCNC(=O)COCCOCCNC(=O)CC[C@H](NC(=O)CCCCCCCCCCCCCCCCC(=O)O)C(=O)O)NC(=O)[C@H](C)NC(=O)[C@H](C)NC(=O)[C@H](CCC(N)=O)NC(=O)[C@H](CCC(=O)O)NC(=O)[C@H](CCC(=O)O)NC(=O)[C@H](CC(C)C)NC(=O)[C@H](Cc1ccc(O)cc1)NC(=O)[C@H](CO)NC(=O)[C@H](CO)NC(=O)[C@@H](NC(=O)[C@H](CC(=O)O)NC(=O)[C@H](CO)NC(=O)[C@@H](NC(=O)[C@H](Cc1ccccc1)NC(=O)[C@@H](NC(=O)CNC(=O)[C@H](CCC(=O)O)NC(=O)C(C)(C)NC(=O)[C@@H](N)Cc1c[nH]cn1)[C@@H](C)O)[C@@H](C)O)C(C)C)C(=O)N[C@@H](C)C(=O)N[C@@H](Cc1c[nH]c2ccccc12)C(=O)N[C@@H](CC(C)C)C(=O)N[C@H](C(=O)N[C@@H](CCC(N)=O)C(=O)NCC(=O)N[C@@H](CCCNC(=N)N)C(=O)N[C@@H](CCCCNC(=O)[C@@H](N)CCCCNC(=O)COCCOCCNC(=O)COCCOCCNC(=O)CC[C@H](NC(=O)CCCCCCCCCCCCCCCCC(=O)O)C(=O)O)C(=O)O)C(C)C [Example 28, N^ε26-[(2S)-2-amino-6-[[2-[2-[2-[[2-[2-[2-[[(4S)-4-carboxy-4-(17-carboxyheptadecanoylamino)butanoyl]amino]ethoxy]ethoxy]acetyl]amino]ethoxy]ethoxy]acetyl]amino]hexanoyl], N^ε37-[(2S)-2-amino-6-[[2-[2-[2-[[2-[2-[2-[[(4S)-4-carboxy-4-(17-carboxyheptadecanoylamino)butanoyl]amino]ethoxy]ethoxy]acetyl]amino]ethoxy]ethoxy]acetyl]amino]hexanoyl]-[Aib^8,Glu^22,Gln^34, Lys^37]-GLP-1-(7-37)-peptide] (H-H[Aib]EGTFTSDVSSYLEEQAAK([εLys-AEEA-AEEA-γGlu-C18 diacid])EFIAWLVQGRK([εLys-AEEA-AEEA-γGlu-C18 diacid])-OH; N-terminus and C-terminus assumed) | – | – | 5.73 nM | – | 1.67 nM | – | – | ≥ 1000 nM | 0.017 nM | 329

Source: US10604554B2, “Double-acylated GLP-1 derivatives” (Novo Nordisk A/S, priority 2012, dated 2020)
